Experiment: Solubility of compounds in topical formulations (stirred, visual dissolution)
Format: physicochemical
Conditions: for Solubility in Non-Aqueous Formulation: Non-Aqueous Formulation (50% PEG400, 15% Transcutol P, 25% ethanol, 10% DMSO)
Excerpt: Several formulations were used to evaluate the solubility of the various compounds. Although any suitable pharmaceutical formulation may be used for the compounds, formulations such as those described below are suitable for administration of the compounds to the hair or scalp of a mammal such as a human being. The formulation may be sterilized before applying to a mammal such as a human being. • A Non-Aqueous Formulation, containing 50% PEG400, 15% Transcutol® P, 25% ethanol, and 10% DMSO was manufactured using the following general process: 10 g of PEG400, 3 g of Transcutol® P, 5 g of ethanol, and 2 g of DMSO were added to a clear vial. The mixture was then stirred using a stir bar until homogenous. • Aqueous Formulation 1, containing 10% PEG400, 20% Transcutol® HP, 45% ethanol, and 25% water was manufactured using the following general process: in a large amber pyrex bottle, 1) 19.98 g of PEG400 was added; 2) 40.07 g of Transcutol® HP was added; 3) 90 g of ethanol was added; 4) 50.03 g of water was added; and 5) the mixture was stirred using a magnetic stir bar for 30 mins at 800 rpm. • Aqueous Formulation 2, containing 10% propylene glycol, 20% Transcutol® HP, 45% ethanol, and 25% water was manufactured using the following process: in a large amber pyrex bottle, 1) 10.03 g propylene glycol was added; 2) 20.03 g Transcutol® HP was added; 3) 44.99 g ethanol was added; 4) 25.02 g water was added; and 5) the mixture was stirred using a magnetic stir bar for 30 mins at 800 rpm.
The solubilities of several compounds shown below in the described formulations are indicated below.
• Aqueous Formulation 1: 0.5 mg Reference Compound and 9.9996 g Aqueous Formulation 1 (0.005% w/w) were stirred at 600 RPM for 1 hour. The Reference Compound remained undissolved in 1 hour; • Aqueous Formulation 2: 0.5 mg Reference Compound and 10.0006 g Aqueous Formulation 2 (0.005% w/w) were stirred at 600 RPM for 1 hour. […]

SMILES | Solubility in Non-Aqueous Formulation (dissolved / remained undissolved in 1 hour) | Solubility in Non-Aqueous Formulation (remained undissolved in 24 hours) | Solubility in Aqueous Formulation 1 (Aqueous Formulation 1 (10% PEG400, 20% Transcutol HP, 45% ethanol, 25% water), stirred at 600 RPM for 1 hour)
N#C/C(=C\c1cn(-c2cccc(C(F)(F)F)c2)c2ncccc12)C(=O)O [Compound 3, (E)-2-cyano-3-(1-(3-(trifluoromethyl)phenyl)-1H-pyrrolo[2,3-b]pyridin-3-yl)acrylic acid] | ≥ 0.1 % w/w | < 0.2 % w/w | 
N#C/C(=C\c1cn(Cc2cc(C(F)(F)F)cc(C(F)(F)F)c2)c2ncccc12)C(=O)O [Reference Compound, (E)-3-(1-(3,5-bis(trifluoromethyl)benzyl)-1H-pyrrolo[2,3-b]pyridin-3-yl)-2-cyanoacrylic acid, reference compound] |  |  | < 0.005 % w/w
